# US9340493B2, “Hydroxamic acid derivatives useful as antibacterial agents” (Pfizer Inc., priority 2008, dated 2016)
# How the values were obtained:
# Klebsiella pneumoniae = assay: MIC determination, K. pneumoniae; format: cell-based; conditions: ciprofloxacin-resistant, ESBL-expressing clinical isolate, * = arithmetic mean of 2-6 MIC determinations, read-out: MIC (ug/mL) K. pneumoniae
# Method in brief: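 MIC determined by broth dilution per CLSI M7-A7 and M100-S18 guidelines. Strain: ciprofloxacin-resistant, ESBL-expressing clinical isolate of K. pneumoniae.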
# Escherichia coli EC-1 = assay: MIC determination, E. coli EC-1; format: cell-based; conditions: EC1, EC-1: VOGEL, * = arithmetic mean of 2-6 MIC determinations, read-out: MIC (ug/mL) E. coli EC-1
# Method in brief: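 Minimum inhibitory concentration against Escherichia coli EC-1 was determined in vitro by dilution susceptibility testing under CLSI M7-A7 and M100-S18 guidelines.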
# [1] = target: T1, Pseudomonas aeruginosa LpxC enzyme (Pseudomonas aeruginosa, UniProt P47205); assay: IC50 assay, LpxC enzyme from P. aeruginosa; format: biochemical; conditions: 0.5 nM enzyme, 25° C., pH 8.0, 20 min; ** = average of 2-8 assays
# T1 construct: made in house; host or cells: E. coli
# T1 sequence (P47205 1-303): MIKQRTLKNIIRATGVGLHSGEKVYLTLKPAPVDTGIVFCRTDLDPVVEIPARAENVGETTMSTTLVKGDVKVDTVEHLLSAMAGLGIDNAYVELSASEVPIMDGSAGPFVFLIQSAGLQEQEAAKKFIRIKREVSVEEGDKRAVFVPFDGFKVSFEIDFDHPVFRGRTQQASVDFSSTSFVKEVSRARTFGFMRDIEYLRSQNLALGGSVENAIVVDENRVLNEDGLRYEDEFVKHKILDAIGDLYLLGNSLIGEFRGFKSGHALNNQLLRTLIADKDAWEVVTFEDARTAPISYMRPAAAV
# Method in brief: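 P. aeruginosa LpxC (0.5 nM, expressed in E. coli) reacted with 0.5 uM ³H-acetyl-labelled UDP-3-O-(R-3-hydroxydecanoyl)-GlcNAc in 50 mM sodium phosphate pH 8.0 with 1 mg/ml BSA at 25 °C for 20 min. Charcoal stopped the reaction, and filtrate radioactivity was counted by scintillation after no-enzyme background subtraction.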
# [2] = test system: Staphylococcus aureus ATCC 29213; assay: MIC determination, S. aureus ATCC 29213; format: cell-based; conditions: ATCC29213, CLSI quality control reference strain, * = arithmetic mean of 2-6 MIC determinations, read-out: MIC (ug/mL) S. aureus ATCC 29213
# Method in brief: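 MIC was measured by dilution susceptibility testing following CLSI guidelines (M7-A7; M100-S18). The test organism is the CLSI quality-control reference strain.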
# Enterobacter aerogenes = assay: MIC determination, E. aerogenes; format: cell-based; conditions: Klebsiella aerogenes; quinolone-resistant, ESBL-expressing clinical isolate; * = arithmetic mean of 2-6 MIC determinations; read-out: MIC (ug/mL) E. aerogenes
# Method in brief: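 Clinical E. aerogenes isolate, quinolone-resistant and ESBL-expressing. MIC measured in vitro by dilution testing according to CLSI guidelines (M7-A7, M100-S18).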
# P. aeruginosa UI-18 = assay: MIC determination, P. aeruginosa UI-18; format: cell-based; conditions: Pseudomonas aeruginosa, UI18; wild-type; * = arithmetic mean of 2-6 MIC determinations; read-out: MIC (ug/mL) P. aeruginosa UI-18
# Method in brief: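 MIC by broth dilution following CLSI M7-A7 and M100-S18 guidelines, tested against wild-type P. aeruginosa UI-18.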
# P. aeruginosa PAO280 = assay: MIC determination, P. aeruginosa PAO280; format: cell-based; conditions: Pseudomonas aeruginosa, PAO280, read-out: MIC (ug/mL) P. aeruginosa PAO280
# Method in brief: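 Broth dilution MIC per CLSI M7-A7/M100-S18 guidelines. Strain PAO280 lacks efflux pumps MexAB-oprM, MexXY and MexZ.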
# [3] = test system: Acinetobacter baumanii/haemolyticus; assay: MIC determination, A. baumanii/haemolyticus; format: cell-based; conditions: Acinetobacter baumannii; multidrug-resistant clinical isolate; * = arithmetic mean of 2-6 MIC determinations; read-out: MIC (ug/mL) A. baumanii/haemolyticus
# Method in brief: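 MICs were determined by CLSI broth dilution (M7-A7, M100-S18) against a multidrug-resistant clinical isolate of Acinetobacter baumanii/haemolyticus.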
SMILES,MIC (Klebsiella pneumoniae),MIC (Escherichia coli EC-1),IC50 [1],MIC [2],MIC (Enterobacter aerogenes),MIC (P. aeruginosa UI-18),MIC (P. aeruginosa PAO280),MIC [3]
"C[C@@](OCc1ccc(-c2ccccc2)cc1)(C(=O)NO)[C@@H](O)c1ccco1 [Example 13, (2S,3S)-2-(biphenyl-4-ylmethoxy)-3-(2-furyl)-N,3-dihydroxy-2-methylpropanamide]",> 32 µg/mL,> 32 µg/mL,0.00163 µM,> 32 µg/mL,> 32 µg/mL,32 µg/mL,0.5 µg/mL,> 32 µg/mL
"CC(OCc1ccc(-c2ccccc2)cc1)(C(=O)NO)C(=O)NCc1cn2ccccc2n1 (stereo not shown) [Example 83, 2-(biphenyl-4-ylmethoxy)-N-hydroxy-N′-(imidazo[1,2-a]pyridin-2-ylmethyl)-2-methylmalonamide]",64 µg/mL,16 µg/mL,0.00218 µM,> 32 µg/mL,> 64 µg/mL,8 µg/mL,0.125 µg/mL,64 µg/mL
"CC(OCc1ccc(-c2ccccc2)cc1)(C(=O)NO)C(=O)NCc1nc(-c2ccccc2)no1 (stereo not shown) [Example 69, 2-(biphenyl-4-ylmethoxy)-N-hydroxy-2-methyl-N′-[(3-phenyl-1,2,4-oxadiazol-5-yl)methyl]malonamide]",> 16 µg/mL,16 µg/mL,0.00446 µM,> 16 µg/mL,> 16 µg/mL,12 µg/mL,0.75 µg/mL,16 µg/mL
"Cc1cc(CNC(=O)C(C)(OCc2ccc(-c3ccc(F)cc3)nc2)C(=O)NO)no1 (stereo not shown) [Example 53, 2-{[6-(4-fluorophenyl)pyridin-3-yl]methoxy}-N-hydroxy-2-methyl-N′-[(5-methylisoxazol-3-yl)methyl]malonamide]",> 64 µg/mL,16 µg/mL,0.0143 µM,> 64 µg/mL,> 64 µg/mL,32 µg/mL,0.5 µg/mL,64 µg/mL
"CC(OCc1ccc(-c2ccccc2)cc1)(C(=O)NO)C(=O)NCc1cc(-c2ccccc2)on1 (stereo not shown) [Example 67, 2-(biphenyl-4-ylmethoxy)-N-hydroxy-2-methyl-N′-[(5-phenylisoxazol-3-yl)methyl]malonamide]",> 16 µg/mL,16 µg/mL,0.0032 µM,> 16 µg/mL,> 16 µg/mL,4 µg/mL,0.5 µg/mL,8 µg/mL
"C[S+]([O-])c1cc([C@H](O)[C@](C)(OCc2ccc(-c3ccc(F)cc3)cc2)C(=O)NO)no1 (stereo partly drawn) [Example 44, (2S,3S)-2-[(4′-fluorobiphenyl-4-yl)methoxy]-N,3-dihydroxy-2-methyl-3-[5-(methylsulfinyl)isoxazol-3-yl]propanamide]",32 µg/mL,8 µg/mL,0.000283 µM,> 64 µg/mL,> 64 µg/mL,1 µg/mL,0.015 µg/mL,32 µg/mL
"COCc1cc(CNC(=O)C(C)(OCc2ccc(-c3ccccc3)cc2)C(=O)NO)no1 (stereo not shown) [Example 85, 2-(biphenyl-4-ylmethoxy)-N-hydroxy-N′-{[5-(methoxymethyl)isoxazol-3-yl]methyl}-2-methylmalonamide]",32 µg/mL,16 µg/mL,0.00159 µM,64 µg/mL,> 64 µg/mL,8 µg/mL,0.125 µg/mL,64 µg/mL
"CCCc1ccc(-c2ccc(CO[C@](C)(C(=O)NO)[C@@H](O)c3cn4ccccc4n3)cc2)cc1 [Example 26, (2S,3S)-N,3-dihydroxy-3-imidazo[1,2-a]pyridin-2-yl-2-methyl-2-[(4′-propylbiphenyl-4-yl)methoxy]propanamide]",4 µg/mL,1 µg/mL,0.00137 µM,32 µg/mL,8 µg/mL,8 µg/mL,2 µg/mL,1 µg/mL
"C[C@@](OCc1ccc(-c2ccccc2)cc1)(C(=O)NO)[C@@H](O)c1nccs1 [Example 20, (2S,3R)-2-(biphenyl-4-ylmethoxy)-N,3-dihydroxy-2-methyl-3-(1,3-thiazol-2-yl)propanamide]",> 64 µg/mL,> 64 µg/mL,0.000726 µM,> 64 µg/mL,> 64 µg/mL,16 µg/mL,1 µg/mL,> 64 µg/mL
"Cc1ccc(-c2ccc(CO[C@](C)(C(=O)NO)[C@@H](O)c3cc(CO)on3)cc2)cc1 [Example 37, (2S,3S)-N,3-dihydroxy-3-[5-(hydroxymethyl)isoxazol-3-yl]-2-methyl-2-[(4′-methylbiphenyl-4-yl)methoxy]propanamide]",16 µg/mL,8 µg/mL,0.000476 µM,> 64 µg/mL,64 µg/mL,0.75 µg/mL,0.015 µg/mL,64 µg/mL
"C[C@@](OCc1ccc(-c2ccccc2)cc1)(C(=O)NO)[C@@H](O)c1ccoc1 [Example 22, (2S,3S)-2-(biphenyl-4-ylmethoxy)-3-(3-furyl)-N,3-dihydroxy-2-methylpropanamide]",> 8 µg/mL,> 8 µg/mL,0.0105 µM,> 8 µg/mL,> 8 µg/mL,> 8 µg/mL,4 µg/mL,> 8 µg/mL
"CCCc1ccc(-c2ccc(CO[C@](C)(C(=O)NO)[C@@H](O)c3cc(C)on3)cc2)cc1 [Example 30, (2S,3S)-N,3-dihydroxy-2-methyl-3-(5-methylisoxazol-3-yl)-2-[(4′-propylbiphenyl-4-yl)methoxy]propanamide]",4 µg/mL,2 µg/mL,0.000762 µM,32 µg/mL,16 µg/mL,4 µg/mL,1 µg/mL,2 µg/mL
"C[C@@](OCc1ccc(-c2ccccc2)cc1)(C(=O)NO)[C@@H](O)c1cn2ccccc2n1 [Example 25, (2S,3S)-2-(biphenyl-4-ylmethoxy)-N,3-dihydroxy-3-imidazo[1,2-a]pyridin-2-yl-2-methylpropanamide]",4 µg/mL,3 µg/mL,0.00138 µM,> 64 µg/mL,16 µg/mL,1.67 µg/mL,0.03 µg/mL,32 µg/mL
"CC(CO)(OCc1ccc(-c2ccc(F)cc2F)cc1)C(=O)NO (stereo not shown) [Example 66, 2-[(2′,4′-difluorobiphenyl-4-yl)methoxy]-N,3-dihydroxy-2-methylpropanamide]",> 64 µg/mL,> 64 µg/mL,0.00332 µM,> 64 µg/mL,> 64 µg/mL,64 µg/mL,1.5 µg/mL,> 64 µg/mL
"C[C@@](OCc1ccc(-c2ccccc2)cc1)(C(=O)NO)[C@@H](O)c1cc(CO)on1 [Example 34, (2S,3S)-2-(biphenyl-4-ylmethoxy)-N,3-dihydroxy-3-[5-(hydroxymethyl)isoxazol-3-yl]-2-methylpropanamide]",64 µg/mL,28 µg/mL,0.000579 µM,> 64 µg/mL,> 64 µg/mL,1.25 µg/mL,0.023 µg/mL,64 µg/mL
"C[C@@](OCc1ccc(-c2ccccc2)cc1)(C(=O)NO)[C@@H](O)c1ncco1 [Example 33, (2S,3R)-2-(biphenyl-4-ylmethoxy)-N,3-dihydroxy-2-methyl-3-(1,3-oxazol-2-yl)propanamide]",> 64 µg/mL,64 µg/mL,0.00323 µM,> 64 µg/mL,> 64 µg/mL,8 µg/mL,0.25 µg/mL,> 64 µg/mL
"CC(CO)(OCc1ccc(-c2ccc(-c3cc(CN4CCOCC4)no3)cc2)cc1)C(=O)NO (stereo not shown) [Example 55, N,3-dihydroxy-2-methyl-2-({4′-[3-(morpholin-4-ylmethyl)isoxazol-5-yl]biphenyl-4-yl}methoxy)propanamide]",> 64 µg/mL,> 64 µg/mL,0.00399 µM,> 64 µg/mL,> 64 µg/mL,32 µg/mL,0.5 µg/mL,> 64 µg/mL
